Test results reported in PubChem BioAssay AID1963439 (Molecular Pharmacology Branch, DTP, NCI, 2024).

Tested on: NCI-H196 complex spheroids with HUVEC/MSC, growth % T/C
Test: Anticancer human tumor NCI-H196 cell line growth inhibition [Asc];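 note: spheroids exposed to compound for 7 days before measurement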;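 for viability, T/C: 100% = DMSO vehicle control wells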
Conditions: for IC50: curve of first compound; for viability, T/C: stronger effect = lower value
Procedure, shortened: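 Complex spheroids combining tumor cells with HUVEC endothelial cells and human MSCs, at 37 degrees C, 5% CO2; agents tested alone or combined, half-log dilutions from at or near clinical Cmax, or 10 microM if Cmax unknown.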

[1] = second compound 0.1 µM, first compound 0.0316 µM
[2] = second compound 0.1 µM, first compound 0.1 µM
[3] = second compound 0.316 µM, first compound 0.0316 µM
[4] = second compound 0.316 µM, first compound 0.1 µM
[5] = second compound 1 µM, first compound 0.0316 µM
[6] = second compound 1 µM, first compound 0.1 µM
[7] = second compound 3.16 µM, first compound 0.0316 µM
[8] = second compound 3.16 µM, first compound 0.1 µM
[9] = second compound 10 µM, first compound 0.0316 µM
[10] = second compound 10 µM, first compound 0.1 µM

## Cc1nc(N2CCC3(CC2)COC(C)C3N)c(CO)nc1Sc1ccnc(N)c1Cl (stereo not given) + CNC(C)C(=O)NC1CN(S(=O)(=O)c2cccc(S(=O)(=O)N3CCC4CCC(C(=O)NC(c5ccccc5)c5ccccc5)N4C(=O)C(NC(=O)C(C)NC)C3)c2)CCC2CCC(C(=O)NC(c3ccccc3)c3ccccc3)N2C1=O
Second compound 0.01 µM
  IC50: < 9.49 nM
Second compound 0.0316 µM
  IC50: < 9.49 nM
Second compound 0.1 µM
  IC50: < 9.49 nM
Second compound 0.316 µM
  IC50: < 9.49 nM
Second compound 1 µM
  IC50: < 9.49 nM
Second compound 0.01 µM, first compound 0.00949 µM
  viability, T/C: 11%
Second compound 0.01 µM, first compound 0.03 µM
  viability, T/C: 7.94%
Second compound 0.01 µM, first compound 0.0949 µM
  viability, T/C: 5.15%
Second compound 0.01 µM, first compound 0.3 µM
  viability, T/C: 6.8%
Second compound 0.01 µM, first compound 0.949 µM
  viability, T/C: 6.64%
Second compound 0.01 µM, first compound 3 µM
  viability, T/C: 6.64%
Second compound 0.0316 µM, first compound 0.00949 µM
  viability, T/C: 4.39%
Second compound 0.0316 µM, first compound 0.03 µM
  viability, T/C: 3.45%
Second compound 0.0316 µM, first compound 0.0949 µM
  viability, T/C: 4.36%
Second compound 0.0316 µM, first compound 0.3 µM
  viability, T/C: 3.89%
Second compound 0.0316 µM, first compound 0.949 µM
  viability, T/C: 4.66%
Second compound 0.0316 µM, first compound 3 µM
  viability, T/C: 4.54%
Second compound 0.1 µM, first compound 0.00949 µM
  viability, T/C: 3.47%
Second compound 0.1 µM, first compound 0.03 µM
  viability, T/C: 3.41%
Second compound 0.1 µM, first compound 0.0949 µM
  viability, T/C: 4.81%
Second compound 0.1 µM, first compound 0.3 µM
  viability, T/C: 3.67%
Second compound 0.1 µM, first compound 0.949 µM
  viability, T/C: 3.69%
Second compound 0.1 µM, first compound 3 µM
  viability, T/C: 3.62%
Second compound 0.316 µM, first compound 0.00949 µM
  viability, T/C: 3.86%
Second compound 0.316 µM, first compound 0.03 µM
  viability, T/C: 6.04%
Second compound 0.316 µM, first compound 0.0949 µM
  viability, T/C: 2.84%
Second compound 0.316 µM, first compound 0.3 µM
  viability, T/C: 2.59%
Second compound 0.316 µM, first compound 0.949 µM
  viability, T/C: 3.03%
Second compound 0.316 µM, first compound 3 µM
  viability, T/C: 3.1%
Second compound 1 µM, first compound 0.00949 µM
  viability, T/C: 4.12%
Second compound 1 µM, first compound 0.03 µM
  viability, T/C: 2.58%
Second compound 1 µM, first compound 0.0949 µM
  viability, T/C: 2.94%
Second compound 1 µM, first compound 0.3 µM
  viability, T/C: 2.39%
Second compound 1 µM, first compound 0.949 µM
  viability, T/C: 2.12%
Second compound 1 µM, first compound 3 µM
  viability, T/C: 1.83%

## Cn1ncnc1[C@H]1c2n[nH]c(=O)c3cc(F)cc(c23)N[C@@H]1c1ccc(F)cc1 + Cc1c(S(C)(=O)=O)c(-c2cc(F)cc(N3CCN(c4ccc(NS(=O)(=O)c5ccc(NC(CCN6CCC(C(=O)OCCCP(=O)(O)O)CC6)CSc6ccccc6)c(S(=O)(=O)C(F)(F)F)c5)cc4)CC3)c2)c(-c2ccc(Cl)cc2)n1C(C)C
Second compound 0.1 µM
  IC50: > 100 nM
Second compound 0.316 µM
  IC50: > 100 nM
Second compound 1 µM
  IC50: > 100 nM
Second compound 3.16 µM
  IC50: > 100 nM
Second compound 10 µM
  IC50: > 100 nM
Second compound 0.1 µM, first compound 0.000316 µM
  viability, T/C: 107%
Second compound 0.1 µM, first compound 0.001 µM
  viability, T/C: 101%
Second compound 0.1 µM, first compound 0.00316 µM
  viability, T/C: 102%
Second compound 0.1 µM, first compound 0.01 µM
  viability, T/C: 101%
[1]
  viability, T/C: 94.8%
[2]
  viability, T/C: 98.4%
Second compound 0.316 µM, first compound 0.000316 µM
  viability, T/C: 102%
Second compound 0.316 µM, first compound 0.001 µM
  viability, T/C: 105%
Second compound 0.316 µM, first compound 0.00316 µM
  viability, T/C: 107%
Second compound 0.316 µM, first compound 0.01 µM
  viability, T/C: 95.2%
[3]
  viability, T/C: 89%
[4]
  viability, T/C: 93.4%
Second compound 1 µM, first compound 0.000316 µM
  viability, T/C: 97%
Second compound 1 µM, first compound 0.001 µM
  viability, T/C: 94.9%
Second compound 1 µM, first compound 0.00316 µM
  viability, T/C: 94.5%
Second compound 1 µM, first compound 0.01 µM
  viability, T/C: 95.7%
[5]
  viability, T/C: 86.2%
[6]
  viability, T/C: 94%
Second compound 3.16 µM, first compound 0.000316 µM
  viability, T/C: 93.1%
Second compound 3.16 µM, first compound 0.001 µM
  viability, T/C: 84.4%
Second compound 3.16 µM, first compound 0.00316 µM
  viability, T/C: 78.5%
Second compound 3.16 µM, first compound 0.01 µM
  viability, T/C: 79.1%
[7]
  viability, T/C: 80.1%
[8]
  viability, T/C: 80.1%
Second compound 10 µM, first compound 0.000316 µM
  viability, T/C: 77.2%
Second compound 10 µM, first compound 0.001 µM
  viability, T/C: 85%
Second compound 10 µM, first compound 0.00316 µM
  viability, T/C: 78.7%
Second compound 10 µM, first compound 0.01 µM
  viability, T/C: 73.9%
[9]
  viability, T/C: 62.8%
[10]
  viability, T/C: 66.8%

## O=C(c1cc(Cc2n[nH]c(=O)c3ccccc23)ccc1F)N1CCN(C(=O)C2CC2)CC1 + Cc1c(S(C)(=O)=O)c(-c2cc(F)cc(N3CCN(c4ccc(NS(=O)(=O)c5ccc(NC(CCN6CCC(C(=O)OCCCP(=O)(O)O)CC6)CSc6ccccc6)c(S(=O)(=O)C(F)(F)F)c5)cc4)CC3)c2)c(-c2ccc(Cl)cc2)n1C(C)C
Second compound 0.1 µM
  IC50: > 10000 nM
Second compound 0.316 µM
  IC50: > 10000 nM
Second compound 1 µM
  IC50: > 10000 nM
Second compound 3.16 µM
  IC50: > 10000 nM
Second compound 10 µM
  IC50: > 10000 nM
[1]
  viability, T/C: 98%
[2]
  viability, T/C: 93.4%
Second compound 0.1 µM, first compound 0.316 µM
  viability, T/C: 85.8%
Second compound 0.1 µM, first compound 1 µM
  viability, T/C: 95.6%
Second compound 0.1 µM, first compound 3.16 µM
  viability, T/C: 99.8%
Second compound 0.1 µM, first compound 10 µM
  viability, T/C: 89.5%
[3]
  viability, T/C: 88.8%
[4]
  viability, T/C: 102%
Second compound 0.316 µM, first compound 0.316 µM
  viability, T/C: 103%
Second compound 0.316 µM, first compound 1 µM
  viability, T/C: 88.3%
Second compound 0.316 µM, first compound 3.16 µM
  viability, T/C: 94.3%
Second compound 0.316 µM, first compound 10 µM
  viability, T/C: 87.1%
[5]
  viability, T/C: 91.4%
[6]
  viability, T/C: 96.9%
Second compound 1 µM, first compound 0.316 µM
  viability, T/C: 88.2%
Second compound 1 µM, first compound 1 µM
  viability, T/C: 89%
Second compound 1 µM, first compound 3.16 µM
  viability, T/C: 83.5%
Second compound 1 µM, first compound 10 µM
  viability, T/C: 81.2%
[7]
  viability, T/C: 89.9%
[8]
  viability, T/C: 83.6%
Second compound 3.16 µM, first compound 0.316 µM
  viability, T/C: 84.5%
Second compound 3.16 µM, first compound 1 µM
  viability, T/C: 86%
Second compound 3.16 µM, first compound 3.16 µM
  viability, T/C: 78.3%
Second compound 3.16 µM, first compound 10 µM
  viability, T/C: 66.3%
[9]
  viability, T/C: 73.2%
[10]
  viability, T/C: 74.9%
Second compound 10 µM, first compound 0.316 µM
  viability, T/C: 71.6%
Second compound 10 µM, first compound 1 µM
  viability, T/C: 71.8%
Second compound 10 µM, first compound 3.16 µM
  viability, T/C: 74%
Second compound 10 µM, first compound 10 µM
  viability, T/C: 57.9%
